Measurements taken from article PMC10349806 (Nature Communications, 2023).
Where “and” joins values, the source holds several entries; their conditions need not be identical. Identical values can stand only once.

Key:
PfCRT variant E207L = biological target: T1, PfCRT variant E207L (Plasmodium falciparum, UniProt Q9N623, A220S/E207L/I356T/K76T/M74I/N326S/N75E/Q271E/R371I); assay: CQ uptake assay, oocytes expressing E207L; assay type: cell-based
T1 construct: expressed in transfected cells; host or cells: Xenopus laevis oocytes injected with in vitro transcribed RNA (pSP64T)
T1 sequence (Q9N623 1-424 M74I/N75E/K76T/E207L/A220S/Q271E/N326S/I356T/R371I): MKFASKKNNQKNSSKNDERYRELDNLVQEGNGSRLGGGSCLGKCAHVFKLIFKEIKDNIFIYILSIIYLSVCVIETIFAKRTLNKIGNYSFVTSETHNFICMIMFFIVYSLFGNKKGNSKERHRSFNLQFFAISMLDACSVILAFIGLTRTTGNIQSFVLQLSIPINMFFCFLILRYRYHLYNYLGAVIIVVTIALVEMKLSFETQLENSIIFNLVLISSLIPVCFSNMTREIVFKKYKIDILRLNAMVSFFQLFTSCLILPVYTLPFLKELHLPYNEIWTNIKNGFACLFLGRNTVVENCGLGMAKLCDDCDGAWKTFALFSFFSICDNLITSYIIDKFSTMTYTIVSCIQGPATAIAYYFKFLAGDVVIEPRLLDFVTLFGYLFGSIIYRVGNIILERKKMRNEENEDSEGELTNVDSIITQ
Description: (§1) Site-directed mutagenesis of PfCRT^Dd2 was performed as described using the megaprimer method with overlap extension[21],[54]. The primer pairs used are listed in Supplementary Table 6. Please note that a codon-optimized and oocyte-adapted version of PfCRT^Dd2 was used[22] (Supplementary Fig. 16). The resulting DNA fragment was cloned into the SP64T expression vector and verified by sequencing.
(§2) Oocytes were obtained as described previously. Briefly, adult (>2 years old) female X. laevis frogs (NASCO) were anesthetized in a cooled solution of ethyl 3-amino benzoate methanesulfonate (0.1%, w/v), followed by a surgical removal of parts of the ovary. The ovary lobes were carefully dissected and small pieces of oocytes were incubated in Ca^2+-free ND96 buffer (96 mM NaCl, 2 mM KCl, 1 mM MgCl2 buffered with 5 mM HEPES/NaOH, pH 7.5) supplemented with collagenase D (0.1%, w/v; Roche), BSA (0.5%, w/v), and 9 mm Na2HPO4 at 18 °C for 14-16 h while gentle shaking. After incubation, the oocytes were carefully washed several times with ND96 buffer (96 mM NaCl, 2 mM KCl, 1.8 mM CaCl2, 1 mM MgCl2 buffered with 5 mM HEPES/NaOH, pH 7.5) supplemented with 100 mg l^−1 gentamycin). Defolliculated and healthy-looking stage V-VI oocytes were manually selected for RNA microinjection. The RNA was generated as following: The codon-optimized sequences of PfCRT variants were cloned into the pSP64T expression vector. After vector linearization using the restriction endonucleases BamHI or SalI (New England Biolabs), transcription was performed using the in vitro SP6 mMessage mMachine Kit (Ambion)[34]. The obtained RNA was kept at −80 °C and diluted with nuclease-free water to a concentration of 0.6 μg μl^−1. Precision-bore glass capillary tubes (3.5-inch glass capillaries; Drummond Scientific Co.) were pulled on a vertical puller (P-87 Flaming/Brown micropipette puller, Sutter Instrument Co.), graduated, and placed on a microinjector (Nanoject II Auto-Nanoliter Injector, Drummond Scientific Co.). 50 nl of nuclease-free water alone (control oocytes) or 50 nl of 0.6 μg μl^−1 RNA were injected under stereomicroscopic control. Injected oocytes were incubated for 46–72 h at 18 °C with twice-daily buffer changes before usage in experiments.
Drug uptake assays were performed as described previously[21],[22],[24],[34]. […] The direction of radio-labeled drug transport is here from the mostly acidic extracellular solution (pH 4.5 or 6.0, as indicated) into the oocyte cytosol (pH ∼ 7.2), which corresponds to the efflux of drug from the acidic digestive vacuole (pH 5.2) into the parasite cytoplasm (pH 7.2). The topology of PfCRT in the oolemma is such that both the N- and C-terminus face the extracellular milieu[3],[22]. In the parasite, the N- and C-terminus face the lumen of the digestive vacuole. […] For determination of the amount of drug uptake for each oocyte, the reaction medium was removed and the oocytes were washed three times with 2 ml of ice-cold ND96 buffer. Each oocyte was individually transferred to a scintillation vial containing 5% sodium dodecyl sulfate (200 μl) for lysis. […] Oocytes that were injected with water instead of RNA were analyzed in parallel, representing the uptake of a drug by diffusion and/or endogenous permeation pathways. The resulting value represents the “background“ level of drug accumulation in oocytes (in-depth discussion in[22]). The specific PfCRT-mediated uptake was determined by subtracting the corresponding background value measured in water-injected oocytes from that of PfCRT-expressing oocytes. In all cases, at least three separate experiments were performed on oocytes from different frogs (biological replicate), and for each condition in an experiment, measurements were made from 10 oocytes per treatment. For pH 5.5, 6.0, and 6.5, ND96 was buffered with 5 mM MES/Tris base.

PfCRT variant E207T = assay: CQ uptake assay, oocytes expressing E207T; assay type: cell-based, Plasmodium falciparum
Description: as §1, §2
Drug uptake assays were performed as described previously[21],[22],[24],[34]. […] The direction of radio-labeled drug transport is here from the mostly acidic extracellular solution (pH 4.5 or 6.0, as indicated) into the oocyte cytosol (pH ∼ 7.2), which corresponds to the efflux of drug from the acidic digestive vacuole (pH 5.2) into the parasite cytoplasm (pH 7.2). The topology of PfCRT in the oolemma is such that both the N- and C-terminus face the extracellular milieu[3],[22]. In the parasite, the N- and C-terminus face the lumen of the digestive vacuole. […] For determination of the amount of drug uptake for each oocyte, the reaction medium was removed and the oocytes were washed three times with 2 ml of ice-cold ND96 buffer. Each oocyte was individually transferred to a scintillation vial containing 5% sodium dodecyl sulfate (200 μl) for lysis. […] Oocytes that were injected with water instead of RNA were analyzed in parallel, representing the uptake of a drug by diffusion and/or endogenous permeation pathways. […] The specific PfCRT-mediated uptake was determined by subtracting the corresponding background value measured in water-injected oocytes from that of PfCRT-expressing oocytes. […]

[1] = E207L, 50 µM CQ, 1 h, mean ± SEM
[2] = pH 4.5, individual replicates, Fig 6b
[3] = pH 6.0, individual replicates, Fig 6b
[4] = ratio of activity pH 4.5 / pH 6.0

Question: Which results are given for CCN(CC)CCCC(C)Nc1ccnc2cc(Cl)ccc12 (centres unmarked) [CQ, chloroquine]?
Answer: Activity at pH 4.5 (PfCRT variant E207L; [1]): 2.10 ± 0.17 pmol h-1 oocyte-1; Activity at pH 6.0 (PfCRT variant E207L; [1]): 2.25 ± 0.22 pmol h-1 oocyte-1; R-value (PfCRT variant E207L; E207L, CQ transport at pH 4.5 / pH 6.0): 0.95 ± 0.04; E207L transport activity pH 4.5 (PfCRT variant E207L; [2]): 2.14 pmol oocyte-1 h-1 and 2.36 pmol oocyte-1 h-1 and 2.37 pmol oocyte-1 h-1 and 1.53 pmol oocyte-1 h-1; E207L transport activity pH 6.0 (PfCRT variant E207L; [3]): 2.70 pmol oocyte-1 h-1 and 2.35 pmol oocyte-1 h-1 and 1.52 pmol oocyte-1 h-1; E207L R-value (PfCRT variant E207L; [4]): 0.79 and 1.00 and 0.98 and 1.01; Activity at pH 6.0 (PfCRT variant E207T; E207T, 50 µM CQ, 1 h, mean ± SEM): 2.62 ± 0.31 pmol h-1 oocyte-1; R-value (PfCRT variant E207T; E207T, CQ transport at pH 4.5 / pH 6.0): 0.91 ± 0.05; E207T transport activity pH 4.5 (PfCRT variant E207T; [2]): 3.35 pmol oocyte-1 h-1 and 2.14 pmol oocyte-1 h-1 and 1.74 pmol oocyte-1 h-1; E207T transport activity pH 6.0 (PfCRT variant E207T; [3]): 3.37 pmol oocyte-1 h-1 and 2.31 pmol oocyte-1 h-1 and 2.17 pmol oocyte-1 h-1; E207T R-value (PfCRT variant E207T; [4]): 0.99 and 0.93 and 0.80
